This note sets out measurements from ChEMBL document CHEMBL1201862, “PubChem BioAssay data set” (2004).

Some test systems named below: SK-MEL-28; Malme-3M; HOP-62; IGROV-1; SNB-19; CAKI-1; K562; MDA-N; MCF7; ACHN; A549; MDA-MB-231; A498; EKVX; NCI-H226; CCRF-CEM; NCI-H23; OVCAR-3; DU-145; HCT-15.
Holding throughout (test): inhibition of tumour cell growth, NCI panel, 48 h

Molecules are shown by their SMILES.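 Five compound concentrations were applied to cells in 96-well plates for 48 hours; endpoints were derived by simple linear interpolation of the resulting dose-response curve. GI50 marks 50% less growth.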 Activity calls are given as the source filed them. Rule as the data show it: active = GI50 up to about 1.1 µM and inactive = higher.

With `CCn1c(SCc2nnc(Nc3ccccc3)s2)nc2ccccc2c1=O`, the GI50 with SK-MEL-28 is 16.4 µM (inactive); with Malme-3M it was 1.46 µM (inactive); with HOP-62, 2.17 µM (inactive); in the assay on IGROV-1, 3.62 µM (inactive); in the assay on SNB-19, 3.5 µM (inactive); in the assay on CAKI-1 it was 3.04 µM (inactive). Further, the GI50 was 19.8 µM (inactive) with K562; 8.77 µM (inactive) in the assay with MDA-N; 9.93 µM (inactive) with MCF7; 2.85 µM (inactive) in the assay on ACHN; 3.67 µM (inactive) with A549; 3.18 µM (inactive) in the assay with MDA-MB-231. In addition, the GI50 was 1.67 µM (inactive) in the assay on A498; 3.56 µM (inactive) in the assay on EKVX; 2.19 µM (inactive) in the assay with NCI-H226; 47.6 µM (inactive) in the assay on CCRF-CEM; 4.7 µM (inactive) in the assay with NCI-H23; 5.19 µM (inactive) with OVCAR-3. In addition, the GI50 in the assay with DU-145 is 9.1 µM (inactive); with HCT-15, 20.7 µM.
Take `C=CC1(C)OC2(CCN(C(=O)OCC)CC2)OC1C` (stereo not given): the GI50 in the assay on SK-MEL-28, with Malme-3M, in the assay on HOP-62, in the assay on IGROV-1, in the assay on SNB-19 and with CAKI-1 was > 100 µM (inactive) each time. Moreover, the GI50 in the assay with K562 is 45.7 µM (inactive); in the assay with MDA-N, > 100 µM (inactive); with MCF7 it was > 100 µM (inactive); with ACHN it was > 100 µM (inactive); in the assay on A549, > 100 µM (inactive); with MDA-MB-231 it was > 100 µM (inactive). For the same molecule, the GI50 in the assay on A498, with EKVX, in the assay with NCI-H226, with CCRF-CEM, with NCI-H23 and in the assay with OVCAR-3 was > 100 µM (inactive) each time. The GI50 with DU-145 is > 100 µM (inactive); in the assay on HCT-15, over 100 µM.
Regarding `COC(=O)c1ccccc1C1CN=NC12Cc1ccc3c(c1C2=O)CCC3` (stereo not given), the GI50 is > 100 µM (inactive) in the assay on SK-MEL-28; 21.8 µM (inactive) in the assay with Malme-3M; > 100 µM (inactive) in the assay with HOP-62; > 100 µM (inactive) in the assay with IGROV-1; 65 µM (inactive) in the assay with SNB-19; > 100 µM (inactive) in the assay on CAKI-1. Besides, the GI50 in the assay with K562 was 7.23 µM (inactive); with MDA-N, > 100 µM (inactive); with MCF7, 34.9 µM (inactive); in the assay on ACHN, 50.4 µM (inactive); in the assay with A549, > 100 µM (inactive); with MDA-MB-231, 75.5 µM (inactive). For the same molecule, the GI50 with A498 is 55.2 µM (inactive); with EKVX, > 100 µM (inactive); with NCI-H226 it was 55.1 µM (inactive); in the assay with CCRF-CEM, 19.3 µM (inactive); in the assay on NCI-H23, 19.2 µM (inactive); in the assay on OVCAR-3 it was 6.92 µM (inactive). For the same molecule, the GI50 was > 100 µM (inactive) in the assay on DU-145 and over 100 µM in the assay on HCT-15.
Turning to `O=[N+]([O-])c1nccn1CC(O)CN1CCCCC1` (stereo not given) [PIMONIDAZOLE], the GI50 in the assay on SK-MEL-28, in the assay with Malme-3M, in the assay on HOP-62, in the assay with IGROV-1, in the assay on SNB-19 and in the assay with CAKI-1 was > 100 µM (inactive) each time. In addition, the GI50 with K562, in the assay on MDA-N, in the assay on MCF7, in the assay on ACHN, with A549 and in the assay with MDA-MB-231 was > 100 µM (inactive) each time. Further, the GI50 in the assay on A498, in the assay with EKVX, in the assay with NCI-H226, in the assay with CCRF-CEM, in the assay with NCI-H23 and with OVCAR-3 was > 100 µM (inactive) each time. The results for the GI50 with DU-145 and with HCT-15 were > 100 µM (inactive) and over 100 µM, respectively.
As for `COc1ccc2c(c1)CCC/C2=N\NS(=O)(=O)c1c(C)cc(C)cc1C`, the GI50 in the assay with SK-MEL-28 was 35.1 µM (inactive); in the assay with Malme-3M it was 24.4 µM (inactive); in the assay with HOP-62 it was 43.4 µM (inactive); in the assay with IGROV-1 it was 19 µM (inactive); in the assay on SNB-19 it was 41.6 µM (inactive); in the assay with CAKI-1 it was 38.5 µM (inactive). For the same molecule, the GI50 in the assay with K562 was 18.1 µM (inactive); in the assay on MDA-N it was 28.6 µM (inactive); in the assay on MCF7, 37.8 µM (inactive); in the assay with ACHN, 27.7 µM (inactive); in the assay on A549, 34.9 µM (inactive); in the assay with MDA-MB-231 it was 30.8 µM (inactive). Moreover, the GI50 in the assay on A498 was 31.8 µM (inactive); in the assay with EKVX, 23.2 µM (inactive); in the assay with NCI-H226, 22.2 µM (inactive); with CCRF-CEM it was 27.1 µM (inactive); in the assay on NCI-H23, 24.8 µM (inactive); in the assay with OVCAR-3, 32.4 µM (inactive). The GI50 with DU-145 is 25.6 µM (inactive); in the assay on HCT-15, 30.3 µM.
For the molecule `O=c1c2c(nc3[nH]ccn13)CCC2`, the GI50 in the assay with SK-MEL-28, with Malme-3M, in the assay with HOP-62, in the assay on IGROV-1, in the assay on SNB-19 and with CAKI-1 was > 10 µM (inactive) in each case. In addition, the GI50 in the assay on K562, in the assay on MDA-N, in the assay with MCF7, with ACHN, with A549 and with MDA-MB-231 was > 10 µM (inactive) in each case. Further, the GI50 with A498 is 2.13 µM (inactive); with EKVX, > 10 µM (inactive); with NCI-H226 it was > 10 µM (inactive); with CCRF-CEM, > 10 µM (inactive); in the assay on NCI-H23 it was > 10 µM (inactive); with OVCAR-3, > 10 µM (inactive). Also, the GI50 is > 10 µM (inactive) in the assay with DU-145 and over 10 µM in the assay with HCT-15.
Turning to `COC(=O)C(=O)C(C(=O)C(=O)Nc1cc(C)ccc1C)c1nc2ccccc2nc1O` (stereo not given), the GI50 is > 100 µM (inactive) in the assay on SK-MEL-28; > 100 µM (inactive) in the assay with Malme-3M; > 100 µM (inactive) in the assay on HOP-62; 67 µM (inactive) in the assay on IGROV-1; > 100 µM (inactive) with SNB-19; > 100 µM (inactive) in the assay on CAKI-1. Moreover, the GI50 was > 100 µM (inactive) with K562; > 100 µM (inactive) in the assay on MDA-N; > 100 µM (inactive) in the assay on MCF7; > 100 µM (inactive) with ACHN; 85.3 µM (inactive) in the assay on A549; > 100 µM (inactive) with MDA-MB-231. The GI50 in the assay with A498 is > 100 µM (inactive); with EKVX, 26.6 µM (inactive); in the assay on NCI-H226, > 100 µM (inactive); in the assay on CCRF-CEM, 36.1 µM (inactive); with NCI-H23, > 100 µM (inactive); in the assay with OVCAR-3, > 100 µM (inactive). Also, the figures for the GI50 in the assay on DU-145 and with HCT-15 were > 100 µM (inactive) and over 100 µM, respectively.
